Literature values in patent US20060264455A1 (priority 2005, published 2006).

System: 6 Hz limbic seizures (corneal stimulation)
Details: established antiepileptic drugs; cited from earlier work

Structure (SMILES)	Efficacy in the 6 Hz psychomotor seizure model
NC(=O)N1c2ccccc2C=Cc2ccccc21 [carbamazepine]	limited efficacy
CC1(C)O[C@@H]2[C@@H](CO[C@@]3(COS(N)(=O)=O)OC(C)(C)O[C@@H]23)O1 [topiramate]	limited efficacy
Nc1nnc(-c2cccc(Cl)c2Cl)c(N)n1 [lamotrigine]	limited efficacy
O=C1NC(=O)C(c2ccccc2)(c2ccccc2)N1 [phenytoin]	limited efficacy
